# From PubChem BioAssay (NCI)
#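 In this assay, cells in 96-well plates receive the compound at five concentrations for 48 hours. Endpoints are linearly interpolated between the surrounding concentrations. The concentration for full growth arrest is given as TGI.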 Where a SMILES comes first, the peptide text is derived from it. [ ]: non-standard residue; d: D form. The star is where a group is joined. Benzoyl(4-OMe) = COc1ccc(C(=O)*)cc1; 2Thi = N[CH](Cc1cccs1)C(=O)O
# Legend:
# Experiment in all cases: growth of human tumour cells (NCI), 48 h
# UACC-62 melanoma = system: UACC-62 melanoma
# HT29 colon = system: HT29 colon
# MDA-MB-231 breast = system: MDA-MB-231 breast
# A498 renal = system: A498 renal
# SK-MEL-5 melanoma = system: SK-MEL-5 melanoma
# SK-MEL-28 melanoma = system: SK-MEL-28 melanoma
# NCI-H226 lung = system: NCI-H226 lung
# CCRF-CEM leukemia = system: CCRF-CEM leukemia
# SN12C renal = system: SN12C renal
# BT-549 breast = system: BT-549 breast
# OVCAR-5 ovarian = system: OVCAR-5 ovarian
# KM12 colon = system: KM12 colon
# PC-3 prostate = system: PC-3 prostate
# SF-268 CNS = system: SF-268 CNS
# NCI-H460 lung = system: NCI-H460 lung
# HS 578T breast = system: HS 578T breast
# DU-145 prostate = system: DU-145 prostate
# RPMI-8226 leukemia = system: RPMI-8226 leukemia
# ACHN renal = system: ACHN renal
# SW-620 colon = system: SW-620 colon
# A549 NSCLC = system: A549 NSCLC
# U251 CNS = system: U251 CNS
# NCI-H23 lung = system: NCI-H23 lung
# OVCAR-8 ovarian = system: OVCAR-8 ovarian
# HOP-92 NSCLC = system: HOP-92 NSCLC
# 786-0 renal = system: 786-0 renal
# M14 melanoma = system: M14 melanoma
# MCF7 breast = system: MCF7 breast
# UO-31 renal = system: UO-31 renal
# MDA-MB-435 = system: MDA-MB-435
# SNB-75 CNS = system: SNB-75 CNS
# SF-295 CNS = system: SF-295 CNS
# OVCAR-4 ovarian = system: OVCAR-4 ovarian
# IGROV1 ovarian = system: IGROV1 ovarian
# HCC-2998 colon = system: HCC-2998 colon
# SNB-19 CNS = system: SNB-19 CNS
# HCT-116 colon = system: HCT-116 colon
# MOLT-4 leukemia = system: MOLT-4 leukemia
# SK-OV-3 ovarian = system: SK-OV-3 ovarian
# UACC-257 melanoma = system: UACC-257 melanoma
# NCI-H522 lung = system: NCI-H522 lung
# SR leukemia = system: SR leukemia
# LOX IMVI melanoma = system: LOX IMVI melanoma
# SF-539 CNS = system: SF-539 CNS
# K-562 leukemia = system: K-562 leukemia
# EKVX NSCLC = system: EKVX NSCLC
# OVCAR-3 ovarian = system: OVCAR-3 ovarian
# HOP-62 NSCLC = system: HOP-62 NSCLC
# COLO 205 colon = system: COLO 205 colon
# HL-60(TB) leukemia = system: HL-60(TB) leukemia
# RXF 393 renal = system: RXF 393 renal
# TK-10 renal = system: TK-10 renal
# SK-MEL-2 melanoma = system: SK-MEL-2 melanoma
# HCT-15 colon = system: HCT-15 colon
# MALME-3M melanoma = system: MALME-3M melanoma
# CAKI-1 renal = system: CAKI-1 renal
# T-47D breast = system: T-47D breast
# NCI/ADR-RES ovarian = system: NCI/ADR-RES ovarian
structure (smiles),measurement,setting,value
O=C(CNc1cccc(Cl)c1)Nn1c(-c2ccccc2)nc2ccccc2c1=O,TGI,UACC-62 melanoma,7.83 µM
same,TGI,HT29 colon,24.9 µM
same,TGI,MDA-MB-231 breast,10.8 µM
same,TGI,A498 renal,43.5 µM
same,TGI,SK-MEL-5 melanoma,2.88 µM
same,TGI,SK-MEL-28 melanoma,29.9 µM
same,TGI,NCI-H226 lung,35.3 µM
same,TGI,CCRF-CEM leukemia,8.73 µM
same,TGI,SN12C renal,13.6 µM
same,TGI,BT-549 breast,3.95 µM
same,TGI,OVCAR-5 ovarian,32.8 µM
same,TGI,KM12 colon,24.9 µM
same,TGI,PC-3 prostate,22.9 µM
same,TGI,SF-268 CNS,22.9 µM
same,TGI,NCI-H460 lung,29.2 µM
same,TGI,HS 578T breast,65 µM
same,TGI,DU-145 prostate,44.9 µM
same,TGI,RPMI-8226 leukemia,> 100 µM
same,TGI,ACHN renal,26.5 µM
same,TGI,SW-620 colon,7.37 µM
same,TGI,A549 NSCLC,46.4 µM
same,TGI,U251 CNS,3.41 µM
same,TGI,NCI-H23 lung,8.11 µM
same,TGI,OVCAR-8 ovarian,> 100 µM
same,TGI,HOP-92 NSCLC,7.45 µM
same,TGI,786-0 renal,7.24 µM
same,TGI,M14 melanoma,6.19 µM
same,TGI,MCF7 breast,4.32 µM
same,TGI,UO-31 renal,31 µM
same,TGI,MDA-MB-435,15.2 µM
same,TGI,SNB-75 CNS,13.8 µM
same,TGI,SF-295 CNS,28.5 µM
same,TGI,OVCAR-4 ovarian,19.3 µM
same,TGI,IGROV1 ovarian,17.9 µM
same,TGI,HCC-2998 colon,23.9 µM
same,TGI,SNB-19 CNS,31.6 µM
same,TGI,HCT-116 colon,4.07 µM
same,TGI,MOLT-4 leukemia,8.62 µM
same,TGI,SK-OV-3 ovarian,23.7 µM
same,TGI,UACC-257 melanoma,42.2 µM
same,TGI,NCI-H522 lung,2.98 µM
same,TGI,SR leukemia,> 100 µM
same,TGI,LOX IMVI melanoma,2.74 µM
same,TGI,SF-539 CNS,13.6 µM
same,TGI,K-562 leukemia,18.1 µM
same,TGI,EKVX NSCLC,34.4 µM
same,TGI,OVCAR-3 ovarian,21.1 µM
same,TGI,HOP-62 NSCLC,30.8 µM
same,TGI,COLO 205 colon,20.2 µM
CCC(C)C(NC(=O)C(Cc1cccs1)NC(=O)C(CC(C)C)NC(=O)C(CC(C)C)NC(=O)C(CCCCN)NC(=O)C(CCCN=C(N)N)NC(=O)c1ccc(OC)cc1)C(=O)NC(CC(C)C)C(N)=O (stereo not given) ({Benzoyl(4-OMe)}-RKLL[2Thi]IL-NH2; configuration not given here),TGI,NCI-H226 lung,> 100 µM
same,TGI,BT-549 breast,> 100 µM
same,TGI,NCI-H23 lung,> 100 µM
same,TGI,UACC-257 melanoma,> 100 µM
CC(=O)c1sc2c(c1OC(=O)c1ccc(Cl)cc1)c(=O)n(-c1ccccc1)c(=S)n2-c1ccccc1,TGI,UACC-62 melanoma,42.6 µM
same,TGI,HT29 colon,8.95 µM
same,TGI,MDA-MB-231 breast,19.2 µM
same,TGI,A498 renal,3.64 µM
same,TGI,SK-MEL-5 melanoma,7.61 µM
same,TGI,SK-MEL-28 melanoma,> 31.8 µM
same,TGI,NCI-H226 lung,5.56 µM
same,TGI,CCRF-CEM leukemia,7.41 µM
same,TGI,SN12C renal,6.43 µM
same,TGI,OVCAR-5 ovarian,13.2 µM
same,TGI,KM12 colon,44.7 µM
same,TGI,PC-3 prostate,> 100 µM
same,TGI,SF-268 CNS,> 100 µM
same,TGI,NCI-H460 lung,22.1 µM
same,TGI,HL-60(TB) leukemia,30.6 µM
same,TGI,HS 578T breast,9.72 µM
same,TGI,RXF 393 renal,5.91 µM
same,TGI,DU-145 prostate,> 100 µM
same,TGI,RPMI-8226 leukemia,8.56 µM
same,TGI,ACHN renal,15.7 µM
same,TGI,SW-620 colon,70.7 µM
same,TGI,A549 NSCLC,> 76.1 µM
same,TGI,U251 CNS,15 µM
same,TGI,NCI-H23 lung,> 68.6 µM
same,TGI,OVCAR-8 ovarian,15.1 µM
same,TGI,HOP-92 NSCLC,15.8 µM
same,TGI,786-0 renal,15.9 µM
same,TGI,TK-10 renal,87.4 µM
same,TGI,M14 melanoma,5.48 µM
same,TGI,MCF7 breast,71.9 µM
same,TGI,UO-31 renal,9.24 µM
same,TGI,SK-MEL-2 melanoma,3.7 µM
same,TGI,HCT-15 colon,25.8 µM
same,TGI,MDA-MB-435,> 36.8 µM
same,TGI,SNB-75 CNS,23.3 µM
same,TGI,SF-295 CNS,5.88 µM
same,TGI,OVCAR-4 ovarian,65.5 µM
same,TGI,IGROV1 ovarian,37.8 µM
same,TGI,HCC-2998 colon,> 58.3 µM
same,TGI,SNB-19 CNS,> 42.9 µM
same,TGI,MALME-3M melanoma,4.51 µM
same,TGI,HCT-116 colon,25.2 µM
same,TGI,CAKI-1 renal,> 47 µM
same,TGI,MOLT-4 leukemia,6.68 µM
same,TGI,SK-OV-3 ovarian,7.03 µM
same,TGI,UACC-257 melanoma,38.4 µM
same,TGI,T-47D breast,> 69.4 µM
same,TGI,NCI-H522 lung,18.9 µM
same,TGI,SR leukemia,23.1 µM
same,TGI,NCI/ADR-RES ovarian,23 µM
same,TGI,LOX IMVI melanoma,6.92 µM
same,TGI,SF-539 CNS,5.06 µM
same,TGI,K-562 leukemia,38.4 µM
same,TGI,EKVX NSCLC,77.8 µM
same,TGI,OVCAR-3 ovarian,41.6 µM
same,TGI,HOP-62 NSCLC,24.1 µM
same,TGI,COLO 205 colon,13.8 µM
